biological target: human PAD4 (hPAD4) (Homo sapiens, UniProt Q9UM07); assay: RFMS Human PAD4 Functional Assay; type: biochemical; details: hPAD4 RFMS IC50, human PAD4, rapid-fire mass spectrum (RFMS) assay; 5 nM hPAD4, 250 μM BAEE
In short: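 RapidFire ESI-MS quantification, normalised to a modified-citrulline internal standard, after phenyl glyoxal (final 4 mM) derivatisation of the TCA-quenched reaction. The enzyme (10 nM) sat 30 min with compound (up to 50 μM final) before 500 μM BAEE (as added) started a 90 min, 37 °C reaction. Buffer: HEPES pH 7.5, 50 μM calcium, 5 μM TPEN.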

Sequence of human PAD4 (hPAD4) (Q9UM07 whole entry): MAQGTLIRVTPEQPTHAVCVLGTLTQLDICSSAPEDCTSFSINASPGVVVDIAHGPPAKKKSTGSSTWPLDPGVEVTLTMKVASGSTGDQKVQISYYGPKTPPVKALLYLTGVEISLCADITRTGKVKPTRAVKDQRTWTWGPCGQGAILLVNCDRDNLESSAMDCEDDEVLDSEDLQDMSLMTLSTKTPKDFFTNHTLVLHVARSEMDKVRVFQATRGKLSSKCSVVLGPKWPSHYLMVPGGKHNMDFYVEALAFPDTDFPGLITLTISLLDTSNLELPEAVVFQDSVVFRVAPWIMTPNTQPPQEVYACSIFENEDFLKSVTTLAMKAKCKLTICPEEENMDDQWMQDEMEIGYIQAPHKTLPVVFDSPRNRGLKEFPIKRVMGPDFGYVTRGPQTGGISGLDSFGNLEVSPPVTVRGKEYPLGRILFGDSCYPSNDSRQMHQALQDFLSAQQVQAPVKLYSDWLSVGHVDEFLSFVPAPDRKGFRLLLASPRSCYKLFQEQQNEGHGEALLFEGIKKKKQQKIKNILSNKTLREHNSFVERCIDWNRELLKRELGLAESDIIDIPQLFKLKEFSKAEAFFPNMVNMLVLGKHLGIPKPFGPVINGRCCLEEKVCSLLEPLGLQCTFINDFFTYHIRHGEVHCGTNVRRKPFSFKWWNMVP

| Compound | IC50 [nM] |
| --- | --- |
| CCOC(=O)c1ccccc1-c1cccc2cc(-c3nc4cc(C(=O)N5C[C@H]6CC[C@@H]5[C@@H]6N)cc(OC)c4n3C)n(CC3CC3)c12 [Example 123, ethyl 2-(2-(5-((1R,4R,7R)-7-amino-2-azabicyclo[2.2.1]heptane-2-carbonyl)-7-methoxy-1-methyl-1H-benzo[d]imidazol-2-yl)-1-(cyclopropylmethyl)-1H-indol-7-yl)benzoate] | 84 |
| COc1cc(C(=O)N2C[C@H]3CC[C@@H]2[C@@H]3N)cc2nc(-c3cc4cccc(-c5ccc(C(N)=O)cc5)c4n3CC3CC3)n(C)c12 [Example 124, 4-(2-(5-((1R,4R,7R)-7-amino-2-azabicyclo[2.2.1]heptane-2-carbonyl)-7-methoxy-1-methyl-1H-benzo[d]imidazol-2-yl)-1-(cyclopropylmethyl)-1H-indol-7-yl)benzamide] | 25 |
| COc1cc(C(=O)N2C[C@H]3CC[C@@H]2[C@@H]3N)cc2nc(-c3cc4cccc(-c5ccc(C(=O)N(C)C)cc5)c4n3CC3CC3)n(C)c12 [Example 125, 4-(2-(5-((1R,4R,7R)-7-amino-2-azabicyclo[2.2.1]heptane-2-carbonyl)-7-methoxy-1-methyl-1H-benzo[d]imidazol-2-yl)-1-(cyclopropylmethyl)-1H-indol-7-yl)-N,N-dimethylbenzamide] | 125 |
| COc1cc(C(=O)N2CC3CCC2[C@@H]3N)cc2nc(-c3cc4cccc(-c5ccc6ccn(C)c6c5)c4n3CC3CC3)n(C)c12 (stereo partly drawn) [Example 126, ((7R)-7-amino-2-azabicyclo[2.2.1]heptan-2-yl)(2-(1′-(cyclopropylmethyl)-1-methyl-1H,1′H-[6,7′-biindol]-2′-yl)-7-methoxy-1-methyl-1H-benzo[d]imidazol-5-yl)methanone] | 110 |
| COc1cc(C(=O)N2C[C@H]3CC[C@@H]2[C@@H]3N)cc2nc(-c3cc4cccc(-c5cc[nH]n5)c4n3CC3CC3)n(C)c12 [Example 127, ((1R,4R,7R)-7-amino-2-azabicyclo[2.2.1]heptan-2-yl)(2-(1-(cyclopropylmethyl)-7-(1H-pyrazol-3-yl)-1H-indol-2-yl)-7-methoxy-1-methyl-1H-benzo[d]imidazol-5-yl)methanone] | 82 |
| C#CCOCC(O)Cn1cc(-c2cccc3cc(-c4nc5cc(C(=O)N6CC7CCC6[C@@H]7N)cc(OC)c5n4C)n(CC4CC4)c23)cn1 (stereo partly drawn) [Example 128, ((7R)-7-amino-2-azabicyclo[2.2.1]heptan-2-yl)(2-(1-(cyclopropylmethyl)-7-(1-(2-hydroxy-3-(prop-2-yn-1-yloxy)propyl)-1H-pyrazol-4-yl)-1H-indol-2-yl)-7-methoxy-1-methyl-1H-benzo[d]imidazol-5-yl)methanone] | 130 |
| COc1cc(C(=O)N2CC3CCC2[C@@H]3N)cc2nc(-c3cc4cccc(-c5ccoc5)c4n3CC3CC3)n(C)c12 (stereo partly drawn) [Example 129, ((7R)-7-amino-2-azabicyclo[2.2.1]heptan-2-yl)(2-(1-(cyclopropylmethyl)-7-(furan-3-yl)-1H-indol-2-yl)-7-methoxy-1-methyl-1H-benzo[d]imidazol-5-yl)methanone] | 194 |
| COc1cc(C(=O)N2CC3CCC2[C@@H]3N)cc2nc(-c3cc4cccc(-c5ccco5)c4n3CC3CC3)n(C)c12 (stereo partly drawn) [Example 130, ((7R)-7-amino-2-azabicyclo[2.2.1]heptan-2-yl)(2-(1-(cyclopropylmethyl)-7-(furan-2-yl)-1H-indol-2-yl)-7-methoxy-1-methyl-1H-benzo[d]imidazol-5-yl)methanone] | 178 |
| COc1cc(C(=O)N2C[C@H]3CC[C@@H]2[C@@H]3N)cc2nc(-c3cc4cccc(-c5cccs5)c4n3CC3CC3)n(C)c12 [Example 131, ((1R,4R,7R)-7-amino-2-azabicyclo[2.2.1]heptan-2-yl)(2-(1-(cyclopropylmethyl)-7-(thiophen-2-yl)-1H-indol-2-yl)-7-methoxy-1-methyl-1H-benzo[d]imidazol-5-yl)methanone] | 156 |
| COc1cc(C(=O)N2CC3CCC2[C@@H]3N)cc2nc(-c3cc4cccc(-c5cnn(C6CCOCC6)c5)c4n3CC3CC3)n(C)c12 (stereo partly drawn) [Example 132, ((7R)-7-amino-2-azabicyclo[2.2.1]heptan-2-yl)(2-(1-(cyclopropylmethyl)-7-(1-(tetrahydro-2H-pyran-4-yl)-1H-pyrazol-4-yl)-1H-indol-2-yl)-7-methoxy-1-methyl-1H-benzo[d]imidazol-5-yl)methanone] | 179 |
| COc1cc(C(=O)N2CC3CCC2[C@@H]3N)cc2nc(-c3cc4cccc(-c5ccc(NC(C)=O)cc5)c4n3CC3CC3)n(C)c12 (stereo partly drawn) [Example 133, N-(4-(2-(5-((7R)-7-amino-2-azabicyclo[2.2.1]heptane-2-carbonyl)-7-methoxy-1-methyl-1H-benzo[d]imidazol-2-yl)-1-(cyclopropylmethyl)-1H-indol-7-yl)phenyl)acetamide] | 121 |
| COc1cc(C(=O)N2CC3CCC2[C@@H]3N)cc2nc(-c3cc4cccc(-c5cccnc5)c4n3CC3CC3)n(C)c12 (stereo partly drawn) [Example 134, ((7R)-7-amino-2-azabicyclo[2.2.1]heptan-2-yl)(2-(1-(cyclopropylmethyl)-7-(pyridin-3-yl)-1H-indol-2-yl)-7-methoxy-1-methyl-1H-benzo[d]imidazol-5-yl)methanone] | 155 |
| COc1cc(C(=O)N2CC3CCC2[C@@H]3N)cc2nc(-c3cc4cccc(-c5cn(C)nc5-c5ccccc5F)c4n3CC3CC3)n(C)c12 (stereo partly drawn) [Example 135, ((7R)-7-amino-2-azabicyclo[2.2.1]heptan-2-yl)(2-(1-(cyclopropylmethyl)-7-(3-(2-fluorophenyl)-1-methyl-1H-pyrazol-4-yl)-1H-indol-2-yl)-7-methoxy-1-methyl-1H-benzo[d]imidazol-5-yl)methanone] | 96 |
| COc1cc(C(=O)N2CC3CCC2[C@@H]3N)cc2nc(-c3cc4cccc(-c5cccc(CO)c5)c4n3CC3CC3)n(C)c12 (stereo partly drawn) [Example 136, ((7R)-7-amino-2-azabicyclo[2.2.1]heptan-2-yl)(2-(1-(cyclopropylmethyl)-7-(3-(hydroxymethyl)phenyl)-1H-indol-2-yl)-7-methoxy-1-methyl-1H-benzo[d]imidazol-5-yl)methanone] | 77 |

The remaining lines, values ahead:

| IC50 [nM] | Compound |
| --- | --- |
| 37 | COc1cc(C(=O)N2C[C@H]3CC[C@@H]2[C@@H]3N)cc2nc(-c3cc4cccc(-c5cn[nH]c5)c4n3CC3CC3)n(C)c12 [Example 137, ((1R,4R,7R)-7-amino-2-azabicyclo[2.2.1]heptan-2-yl)(2-(1-(cyclopropylmethyl)-7-(1H-pyrazol-4-yl)-1H-indol-2-yl)-7-methoxy-1-methyl-1H-benzo[d]imidazol-5-yl)methanone] |
| 147 | COc1cc(C(=O)N2C[C@H]3CC[C@@H]2[C@@H]3N)cc2nc(-c3cc4cccc(-c5cnn(C[C@@H](C)O)c5)c4n3CC3CC3)n(C)c12 [Example 138, ((1R,4R,7R)-7-amino-2-azabicyclo[2.2.1]heptan-2-yl)(2-(1-(cyclopropylmethyl)-7-(1-((R)-2-hydroxypropyl)-1H-pyrazol-4-yl)-1H-indol-2-yl)-7-methoxy-1-methyl-1H-benzo[d]imidazol-5-yl)methanone] |
| 180 | COc1cc(C(=O)N2C[C@H]3CC[C@@H]2[C@@H]3N)cc2nc(-c3cc4cccc(-c5cn(CC(C)(C)O)nc5C)c4n3CC3CC3)n(C)c12 [Example 139, ((1R,4R,7R)-7-amino-2-azabicyclo[2.2.1]heptan-2-yl)(2-(1-(cyclopropylmethyl)-7-(1-(2-hydroxy-2-methylpropyl)-3-methyl-1H-pyrazol-4-yl)-1H-indol-2-yl)-7-methoxy-1-methyl-1H-benzo[d]imidazol-5-yl)methanone] |
| 106 | COc1cc(C(=O)N2C[C@H]3CC[C@@H]2[C@@H]3N)cc2nc(-c3cc4cccc(-c5cnn(CC(C)(C)O)c5)c4n3CC3CC3)n(C)c12 [Example 140, ((1R,4R,7R)-7-amino-2-azabicyclo[2.2.1]heptan-2-yl)(2-(1-(cyclopropylmethyl)-7-(1-(2-hydroxy-2-methylpropyl)-1H-pyrazol-4-yl)-1H-indol-2-yl)-7-methoxy-1-methyl-1H-benzo[d]imidazol-5-yl)methanone] |
| 101 | COc1cc(C(=O)N2C[C@H]3CC[C@@H]2[C@@H]3N)cc2nc(-c3cc4cccc(-c5cnn(CCO)c5)c4n3CC3CC3)n(C)c12 [Example 141, ((R,4R,7R)-7-amino-2-azabicyclo[2.2.1]heptan-2-yl)(2-(1-(cyclopropylmethyl)-7-(1-(2-hydroxyethyl)-1H-pyrazol-4-yl)-1H-indol-2-yl)-7-methoxy-1-methyl-1H-benzo[d]imidazol-5-yl)methanone] |
| 181 | COc1cc(C(=O)N2C[C@@H]3CC[C@@H]2C3N)cc2nc(-c3cc4cccc(-c5ccccc5C#N)c4n3CC3CC3)n(C)c12 (stereo partly drawn) [Example 143, 2-(2-(5-((1R,4S)-7-amino-2-azabicyclo[2.2.1]heptane-2-carbonyl)-7-methoxy-1-methyl-1H-benzo[d]imidazol-2-yl)-1-(cyclopropylmethyl)-1H-indol-7-yl)benzonitrile] |
| 123 | COc1cc(C(=O)N2C[C@H]3CC[C@@H]2[C@@H]3N)cc2nc(-c3cc4cccc(Cl)c4n3CC3CC3)n(C)c12 [Example 145, ((1R,4R,7R)-7-amino-2-azabicyclo[2.2.1]heptan-2-yl)(2-(7-chloro-1-(cyclopropylmethyl)-1H-indol-2-yl)-7-methoxy-1-methyl-1H-benzo[d]imidazol-5-yl)methanone] |

same assay, conditions: human PAD4, rapid-fire mass spectrum (RFMS) assay; 5 nM hPAD4, 250 μM BAEE; read-out: hPAD4 RFMS IC50

| Compound | IC50 [nM] |
| --- | --- |
| COc1cc(C(=O)N2C[C@H]3CC[C@@H]2[C@@H]3N)cc2nc(-c3cc4cccc(-c5cnn(C)c5)c4n3CC3CC3)n(C)c12 [Example 122, ((1R,4R,7R)-7-amino-2-azabicyclo[2.2.1]heptan-2-yl)(2-(1-(cyclopropylmethyl)-7-(1-methyl-1H-pyrazol-4-yl)-1H-indol-2-yl)-7-methoxy-1-methyl-1H-benzo[d]imidazol-5-yl)methanone] | 57 |

From US20220402950A1, “SUBSTITUTED BENZIMIDAZOLES AS PAD4 INHIBITORS” (BRISTOL-MYERS SQUIBB COMPANY, priority 2018, published 2022)
